# Assay: In vitro release of Rg3 by the dialysis method
# Type: physicochemical
# Settings: after 24 hours, PBS pH 7.4, 37° C.
# Description: To estimate the Rg3-loaded nanoniosome's in vitro drug release profile, 1 mL of the formulation was placed inside a dialysis bag and then immersed in a PBS solution (maintained at 37° C. and a pH of 7.4) with constant stirring. The PBS solution surrounding the dialysis bag (which contained released Rg3) was extracted at different time intervals for 24 hours, and the absorbance intensity was measured at 203 nm. The quantity of Rg3 measured in the medium is divided by the starting amount of Rg3 in the formulation to determine the amount of Rg3 released.
smiles,measurement,value
CC(C)=CCC[C@](C)(O)[C@H]1CC[C@]2(C)[C@@H]1[C@H](O)C[C@@H]1[C@@]3(C)CC[C@H](O[C@@H]4O[C@H](CO)[C@@H](O)[C@H](O)[C@H]4O[C@@H]4O[C@H](CO)[C@@H](O)[C@H](O)[C@H]4O)C(C)(C)[C@@H]3CC[C@]12C [Ginsenoside Rg3],release of the loaded drug,24.78%
